Laboratory results reported in patent US20240309015A1, “Methods for the Treatment of Fibrotic Disease” (SHY Therapeutics, LLC, priority 2021, published 2024).

How the values were obtained:
JNK = JNK Activation Assay in PANC-1; format: cell-based, human; design: key: Y = yes; N = No; settings: at 10 μM
Experimental: Cell lines: Human tumor-derived pancreatic cancer cell line Panc-1 and mouse muscle myoblast C2C12 were purchased from American Type Culture Collection and grown in complete DMEM-High Glucose, supplemented with penicillin (100 U/mL), streptomycin (100 μg/mL), and 10% heat-inactivated FBS at 37° C. in a humidified incubator with 5% CO2.
Method: Cells were plated at 350000 cells/well density in a 12-well plate, allowed 3 hours to adhere to the plate, then starved in the appropriate medium in the presence of 0.5% FBS overnight. The small molecules to be tested were added to the cells in the final concentration of 10 μM in the presence of 0.3% DMSO for 3 hours incubation at 37° C. For IC50 value determination, serial dilutions of compounds were added to cells under the same conditions. […] Protein concentration was assessed by BCA protein assay (Thermo Scientific). Phosphorylation level of JNK was determined by western blot.
Western blot protocol: Equal amounts of protein (15-50 μg) were separated by SDS-PAGE and transferred to nitrocellulose membranes (Invitrogen by Thermo Fisher Scientific). […] Membranes were blocked with 10% milk and phosphorylation levels of Smad2, Smad3, JNK and p38 were assessed by incubating overnight at 4° C. with the following antibody: Phospho-SAPK/JNK (Thr183/Tyr185), from Cell Signaling Technology. […]

Smad2/3 phosphorylation = assay: Phospho-Smad2/3 Inhibition Assay in PANC-1; format: cell-based; settings: Homo sapiens, western blot
Summary of the method: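 Serum-starved cells (0.5% FBS overnight) pretreated 3 h at 37 °C with compound at 10 μM or serial dilutions for IC50, in 0.3% DMSO. TGF-b1 10 ng/ml stimulation: 1 h for Panc-1 (human), 20 min for C2C12 (mouse). Phospho-Smad2 (Ser465/467) and phospho-Smad3 (Ser423/425) measured by western blot of lysates.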

KRas wild type = assay: Ras GTP Binding Domain Inhibition Assay, KRas wild type; settings: at 20 μM
Summary of the method: (§1)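 Compounds were tested at 20 μM final, or as dilution series for IC50, against nickel-plate-captured His-tagged GTPase proteins for 3 h at room temperature. Sos exchange factor could be present for the last hour. Labelled GTP (100 nM Cy3 or Cy5) was then bound for 45 min, wells were washed, and retained fluorescence was measured.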

KRas G12C mutant = assay: Ras GTP Binding Domain Inhibition Assay, KRas G12C mutant; settings: at 20 μM
Summary of the method: as §1

**Q.** How did the “Activation of JNK in PANC-1” value (JNK) turn out when `CO[C@H]1CC[C@@H](Nc2nc(-c3nccn3C)nc3sc(-c4ccn(C)n4)c(-c4ccccc4)c23)C1` (racemic) [Compound 5, rac-N-((1R,3S)-3-Methoxycyclopentyl)-2-(1-methyl-1H-imidazol-2-yl)-6-(1-methyl-1H-pyrazol-3-yl)-5-phenylthieno[2,3-d]pyrimidin-4-amine] was run?
**A.** Y

**Q.** What about the inhibition at 10 µM (Smad2/3 phosphorylation; 10 μM compound, 3 h, TGF-b1 stimulated PANC-1, read-out: % inh of Smad2/3 phosphorylation in PANC-1) of the same compound?
**A.** 76 to 100%

**Q.** And the IC50 (Smad2/3 phosphorylation; PANC-1, TGF-b1 stimulated)?
**A.** 5 to 10 µM

**Q.** And the “KRas wild type + SOS: % inh.” value (KRas wild type; with SOS)?
**A.** D (D = 76-100% inhibition)

**Q.** What about the “KRas wild type: % inh.” value (KRas wild type; without SOS) of the same compound?
**A.** B (B = 26-45% inhibition)

**Q.** And the “KRas G12C mutant + SOS: % inh.” value (KRas G12C mutant; with SOS)?
**A.** D (D = 76-100% inhibition)

**Q.** What about the “KRas G12C mutant: % inh.” value (KRas G12C mutant; without SOS) of the same compound?
**A.** B (B = 26-45% inhibition)
